In ChEMBL document CHEMBL1201861, “Genomics of Drug Sensitity in Cancer screening data, Wellcome Trust Sanger Institute”:

Tests used:
Experiment in all cases: cells
[1] = tested on: Calu-6; type: functional, cell-based, Homo sapiens; details: Homo sapiens, Calu-6;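 note: growth of human Calu-6 cells, read out by a cell viability assay, IC50 marking inhibition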
Description: SANGER: Inhibition of human Calu-6 cell growth in a cell viability assay.

[2] = tested on: KALS-1; type: functional, cell-based, Homo sapiens; details: Homo sapiens, KALS-1; read-out: IC50;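 note: growth inhibition of KALS-1 cells, determined with a cell viability assay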
Description: SANGER: Inhibition of human KALS-1 cell growth in a cell viability assay.

[3] = tested on: A704; type: functional, cell-based; details: Homo sapiens;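 note: growth inhibition of human A704 cells, read out with a cell viability assay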
Description: SANGER: Inhibition of human A704 cell growth in a cell viability assay.

[4] = tested on: MZ2-MEL; type: functional, cell-based, Homo sapiens; details: Homo sapiens, MZ2-MEL;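 note: growth inhibition of MZ2-MEL cells read out with a cell viability assay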
Description: SANGER: Inhibition of human MZ2-MEL cell growth in a cell viability assay.

[5] = tested on: DEL; type: functional, cell-based, Homo sapiens; details: Homo sapiens, DEL;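 note: growth inhibition of the human DEL cell line, read out with a cell viability assay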
Description: SANGER: Inhibition of human DEL cell growth in a cell viability assay.

[6] = tested on: C2BBe1; type: functional, cell-based, Homo sapiens; details: Homo sapiens, C2BBe1;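 note: growth inhibition of C2BBe1 cells, read out through a viability assay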
Description: SANGER: Inhibition of human C2BBe1 cell growth in a cell viability assay.

[7] = tested on: ES8; type: functional, cell-based, Homo sapiens; details: Homo sapiens, ES8;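 note: growth inhibition of human ES8 cells, read out with a cell viability assay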
Description: SANGER: Inhibition of human ES8 cell growth in a cell viability assay.

[8] = tested on: TE-5; type: functional, cell-based, Homo sapiens; details: Homo sapiens, TE-5;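 note: inhibition of cell growth, read out by a cell viability assay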
Description: SANGER: Inhibition of human TE-5 cell growth in a cell viability assay.

[9] = tested on: LOX IMVI; type: functional, cell-based, Homo sapiens; details: Homo sapiens, LOX IMVI
Description: SANGER: Inhibition of human LOXIMVI cell growth in a cell viability assay.

[10] = tested on: Ramos-2G6-4C10; type: functional, cell-based, Homo sapiens; details: Homo sapiens, Ramos-2G6-4C10;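 note: growth inhibition of the cell line, measured by a cell viability read-out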
Description: SANGER: Inhibition of human Ramos-2G6-4C10 cell growth in a cell viability assay.

[11] = tested on: EW-1; type: functional, cell-based, Homo sapiens; details: Homo sapiens, EW-1;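 note: growth inhibition of the human EW-1 cell line, read out by a cell viability assay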
Description: SANGER: Inhibition of human EW-1 cell growth in a cell viability assay.

[12] = tested on: GCIY; type: functional, cell-based, Homo sapiens; details: Homo sapiens, GCIY;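 note: growth inhibition of the human GCIY cell line, read out by a cell viability assay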
Description: SANGER: Inhibition of human GCIY cell growth in a cell viability assay.

[13] = tested on: no-10; type: functional, cell-based, Homo sapiens; details: Homo sapiens;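 note: growth inhibition of no-10 cells, read out with a cell viability assay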
Description: SANGER: Inhibition of human no-10 cell growth in a cell viability assay.

[14] = tested on: SK-NEP-1; type: functional, cell-based, Homo sapiens; details: Homo sapiens, SK-NEP-1;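 note: growth inhibition of human SK-NEP-1 cells, read out by a cell viability assay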
Description: SANGER: Inhibition of human SK-NEP-1 cell growth in a cell viability assay.

[15] = tested on: A101D; type: functional, cell-based, Homo sapiens; details: Homo sapiens, A101D;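 note: growth inhibition of the cell line, measured with a viability assay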
Description: SANGER: Inhibition of human A101D cell growth in a cell viability assay.

[16] = tested on: LS-513; type: functional, cell-based, Homo sapiens; details: Homo sapiens, LS-513
Description: SANGER: Inhibition of human LS-513 cell growth in a cell viability assay.

[17] = tested on: COLO-829; type: functional, cell-based, Homo sapiens; details: Homo sapiens, COLO-829
Description: SANGER: Inhibition of human COLO-829 cell growth in a cell viability assay.

[18] = tested on: Mo; type: functional, cell-based, Homo sapiens; details: Homo sapiens, Mo
Description: SANGER: Inhibition of human Mo-T cell growth in a cell viability assay.

[19] = tested on: L-428; type: functional, cell-based, Homo sapiens; details: Homo sapiens, L-428
Description: SANGER: Inhibition of human L-428 cell growth in a cell viability assay.

[20] = tested on: RS4-11; type: functional, cell-based, Homo sapiens; details: Homo sapiens, RS4-11;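 note: growth inhibition of RS4-11 cells, read out by a cell viability assay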
Description: SANGER: Inhibition of human RS4-11 cell growth in a cell viability assay.

[21] = tested on: D-263MG; type: functional, cell-based, Homo sapiens; details: Homo sapiens, D-263MG
Description: SANGER: Inhibition of human D-263MG cell growth in a cell viability assay.

[22] = tested on: TGBC1TKB; type: functional, cell-based, Homo sapiens; details: Homo sapiens, TGBC1TKB;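 note: growth inhibition of TGBC1TKB cells, read out by a cell viability assay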
Description: SANGER: Inhibition of human TGBC1TKB cell growth in a cell viability assay.

[23] = tested on: COLO-684; type: functional, cell-based, Homo sapiens; details: Homo sapiens, COLO-684
Description: SANGER: Inhibition of human COLO-684 cell growth in a cell viability assay.

[24] = tested on: DJM-1; type: functional, cell-based, Homo sapiens; details: Homo sapiens, DJM-1;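 note: growth inhibition of human DJM-1 cells, read out by a cell viability assay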
Description: SANGER: Inhibition of human DJM-1 cell growth in a cell viability assay.

[25] = tested on: NCI-H82; type: functional, cell-based, Homo sapiens; details: Homo sapiens, NCI-H82;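 note: growth inhibition of NCI-H82 cells, measured with a cell viability readout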
Description: SANGER: Inhibition of human NCI-H82 cell growth in a cell viability assay.

[26] = tested on: SH-4; type: functional, cell-based; details: Homo sapiens;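 note: growth inhibition of SH-4 cells, read out with a cell viability assay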
Description: SANGER: Inhibition of human SH-4 cell growth in a cell viability assay.

[27] = tested on: C8166; type: functional, cell-based, Homo sapiens; details: Homo sapiens, C8166;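 note: growth inhibition of human C8166 cells measured by a cell viability assay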
Description: SANGER: Inhibition of human C8166 cell growth in a cell viability assay.

[28] = tested on: ONS-76; type: functional, cell-based, Homo sapiens; details: Homo sapiens, ONS-76;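 note: growth inhibition of human ONS-76 cells, read out with a cell viability assay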
Description: SANGER: Inhibition of human ONS-76 cell growth in a cell viability assay.

[29] = tested on: QIMR-WIL; type: functional, cell-based, Homo sapiens; details: Homo sapiens, QIMR-WIL;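 note: growth inhibition of QIMR-WIL cells, read out with a cell viability assay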
Description: SANGER: Inhibition of human QIMR-WIL cell growth in a cell viability assay.

[30] = tested on: KS-1; type: functional, cell-based; details: Homo sapiens;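 note: growth inhibition of KS-1 cells, read out with a cell viability assay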
Description: SANGER: Inhibition of human KS-1 cell growth in a cell viability assay.

[31] = tested on: SCC-15; type: functional, cell-based, Homo sapiens; details: Homo sapiens, SCC-15;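 note: growth inhibition of SCC-15 cells, read out with a cell viability assay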
Description: SANGER: Inhibition of human SCC-15 cell growth in a cell viability assay.

[32] = tested on: TE-6; type: functional, cell-based, Homo sapiens; details: Homo sapiens, TE-6;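 note: growth inhibition of TE-6 cells, read out with a cell viability assay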
Description: SANGER: Inhibition of human TE-6 cell growth in a cell viability assay.

[33] = tested on: MZ7-mel; type: functional, cell-based, Homo sapiens; details: Homo sapiens, MZ7-mel;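 note: growth inhibition of human MZ7-mel cells, measured by a cell viability assay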
Description: SANGER: Inhibition of human MZ7-mel cell growth in a cell viability assay.

[34] = tested on: DMS-114; type: functional, cell-based, Homo sapiens; details: Homo sapiens, DMS-114
[35] = tested on: HAL-01; type: functional, cell-based, Homo sapiens; details: Homo sapiens, HAL-01;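 note: growth inhibition of human HAL-01 cells, read out with a cell viability assay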
Description: SANGER: Inhibition of human HAL-01 cell growth in a cell viability assay.

[36] = tested on: IST-SL1; type: functional, cell-based, Homo sapiens; details: Homo sapiens, IST-SL1;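 note: growth inhibition of human IST-SL1 cells, read out with a cell viability assay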
Description: SANGER: Inhibition of human IST-SL1 cell growth in a cell viability assay.

[37] = tested on: KM12; type: functional, cell-based, Homo sapiens; details: Homo sapiens, KM12;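 note: KM12 cell growth inhibition, read out with a cell viability assay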
Description: SANGER: Inhibition of human KM12 cell growth in a cell viability assay.

[38] = tested on: SW684; type: functional, cell-based, Homo sapiens; details: Homo sapiens, SW684; read-out: IC50;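 note: growth inhibition of human SW684 cells, measured by a cell viability assay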
Description: SANGER: Inhibition of human SW684 cell growth in a cell viability assay.

[39] = tested on: LB831-BLC; type: functional, cell-based, Homo sapiens; details: Homo sapiens, LB831-BLC;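 note: growth inhibition of LB831-BLC cells, read out with a cell viability assay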
Description: SANGER: Inhibition of human LB831-BLC cell growth in a cell viability assay.

[40] = tested on: TK-10; type: functional, cell-based, Homo sapiens; details: Homo sapiens, TK-10;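 note: growth inhibition of TK-10 cells, read out in a cell viability assay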
Description: SANGER: Inhibition of human TK10 cell growth in a cell viability assay.

[41] = tested on: L-363; type: functional, cell-based, Homo sapiens; details: Homo sapiens, L-363
Description: SANGER: Inhibition of human L-363 cell growth in a cell viability assay.

[42] = tested on: EW-18; type: functional, cell-based, Homo sapiens; details: Homo sapiens, EW-18; read-out: IC50;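 note: growth inhibition of EW-18 cells, read out by a cell viability assay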
Description: SANGER: Inhibition of human EW-18 cell growth in a cell viability assay.

[43] = tested on: MHH-PREB-1; type: functional, cell-based, Homo sapiens; details: Homo sapiens, MHH-PREB-1;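 note: cell viability assay measuring inhibition of proliferation of human MHH-PREB-1 cells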
Description: SANGER: Inhibition of human MHH-PREB-1 cell growth in a cell viability assay.

[44] = tested on: BB65-RCC; type: functional, cell-based, Homo sapiens; details: Homo sapiens, BB65-RCC;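 note: growth inhibition of the cell line, measured with a cell viability assay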
Description: SANGER: Inhibition of human BB65-RCC cell growth in a cell viability assay.

[45] = tested on: ES6; type: functional, cell-based; details: Homo sapiens;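 note: growth inhibition of human ES6 cells, read out with a cell viability assay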
Description: SANGER: Inhibition of human ES6 cell growth in a cell viability assay.

[46] = tested on: IST-MES1; type: functional, cell-based, Homo sapiens; details: Homo sapiens, IST-MES1;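 note: growth inhibition of IST-MES1 cells, measured with a cell viability assay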
Description: SANGER: Inhibition of human IST-MES1 cell growth in a cell viability assay.

[47] = tested on: OVCAR-4; type: functional, cell-based, Homo sapiens; details: Homo sapiens, OVCAR-4;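 note: growth inhibition of human OVCAR-4 cells, measured with a cell viability assay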
Description: SANGER: Inhibition of human OVCAR-4 cell growth in a cell viability assay.

[48] = tested on: ETK-1; type: functional, cell-based, Homo sapiens; details: Homo sapiens, ETK-1;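 note: growth inhibition of human ETK-1 cells, read out with a cell viability assay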
Description: SANGER: Inhibition of human ETK-1 cell growth in a cell viability assay.

[49] = tested on: MEG-01; type: functional, cell-based, Homo sapiens; details: Homo sapiens, MEG-01;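 note: growth inhibition of MEG-01 cells, read out by a cell viability assay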
Description: SANGER: Inhibition of human MEG-01 cell growth in a cell viability assay.

[50] = tested on: KNS-81-FD; type: functional, cell-based, Homo sapiens; details: Homo sapiens, KNS-81-FD;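 note: growth inhibition of KNS-81-FD cells, read out with a cell viability assay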
Description: SANGER: Inhibition of human KNS-81-FD cell growth in a cell viability assay.

Q: Which IC50 [1] does the source give for COc1ccc(-c2cc3nccn3c(Nc3ncccc3C(N)=O)n2)cc1OC here?
A: 6.87 µM

Q: What about the IC50 [2] of the same compound?
A: > 8 µM

Q: And the IC50 [3]?
A: > 8 µM

Q: What about the IC50 [4] of the same compound?
A: 3.48 µM

Q: And the IC50 [5]?
A: 3.07 µM

Q: What about the IC50 [6] of the same compound?
A: > 8 µM

Q: And the IC50 [7]?
A: 5.98 µM

Q: What about the IC50 [8] of the same compound?
A: 5.54 µM

Q: What about the IC50 [9] of the same compound?
A: 2.66 µM

Q: What about the IC50 [10] of the same compound?
A: 2.95 µM

Q: And the IC50 [11]?
A: 1.17 µM

Q: And the IC50 [12]?
A: > 8 µM

Q: What about the IC50 [13] of the same compound?
A: > 8 µM

Q: And the IC50 [14]?
A: 4.53 µM

Q: What about the IC50 [15] of the same compound?
A: 4.87 µM

Q: And the IC50 [16]?
A: > 8 µM

Q: What about the IC50 [17] of the same compound?
A: > 8 µM

Q: And the IC50 [18]?
A: 4.96 µM

Q: And the IC50 [19]?
A: > 8 µM

Q: And the IC50 [20]?
A: 1.23 µM

Q: What about the IC50 [21] of the same compound?
A: > 8 µM

Q: What about the IC50 [22] of the same compound?
A: > 8 µM

Q: And the IC50 [23]?
A: 5.84 µM

Q: And the IC50 [24]?
A: > 8 µM

Q: What about the IC50 [25] of the same compound?
A: > 8 µM

Q: And the IC50 [26]?
A: > 8 µM

Q: And the IC50 [27]?
A: 2.2 µM

Q: What about the IC50 [28] of the same compound?
A: > 8 µM

Q: What about the IC50 [29] of the same compound?
A: 0.582 µM

Q: And the IC50 [30]?
A: 2.78 µM

Q: And the IC50 [31]?
A: > 8 µM

Q: What about the IC50 [32] of the same compound?
A: 6.97 µM

Q: What about the IC50 [33] of the same compound?
A: > 8 µM

Q: What about the IC50 [34] of the same compound?
A: > 8 µM

Q: And the IC50 [35]?
A: > 8 µM

Q: And the IC50 [36]?
A: 7.98 µM

Q: What about the IC50 [37] of the same compound?
A: 2.69 µM

Q: What about the IC50 [38] of the same compound?
A: > 8 µM

Q: What about the IC50 [39] of the same compound?
A: 1.02 µM

Q: And the IC50 [40]?
A: 6.96 µM

Q: What about the IC50 [41] of the same compound?
A: 2.93 µM

Q: And the IC50 [42]?
A: 4.58 µM

Q: What about the IC50 [43] of the same compound?
A: 2.55 µM

Q: And the IC50 [44]?
A: 5.13 µM

Q: And the IC50 [45]?
A: 1.24 µM

Q: And the IC50 [46]?
A: > 8 µM

Q: And the IC50 [47]?
A: > 8 µM

Q: What about the IC50 [48] of the same compound?
A: 5.21 µM

Q: What about the IC50 [49] of the same compound?
A: 5.28 µM

Q: And the IC50 [50]?
A: > 8 µM

Q: With C=CC(=O)N1CCCC(Nc2nc(Nc3ccc(N(C)C(=O)CC)cc3)nc3[nH]cnc23)C1 (stereo not given) as the compound, how does the IC50 [1] read?
A: > 10.2 µM

Q: And the IC50 [2]?
A: > 10.2 µM

Q: What about the IC50 [3] of the same compound?
A: > 10.2 µM

Q: What about the IC50 [4] of the same compound?
A: > 10.2 µM

Q: And the IC50 [5]?
A: > 10.2 µM

Q: And the IC50 [6]?
A: > 10.2 µM

Q: What about the IC50 [7] of the same compound?
A: > 10.2 µM

Q: And the IC50 [8]?
A: > 10.2 µM

Q: What about the IC50 [9] of the same compound?
A: > 10.2 µM

Q: And the IC50 [10]?
A: > 10.2 µM

Q: And the IC50 [11]?
A: > 10.2 µM

Q: And the IC50 [12]?
A: > 10.2 µM

Q: And the IC50 [13]?
A: > 10.2 µM

Q: What about the IC50 [14] of the same compound?
A: > 10.2 µM

Q: And the IC50 [15]?
A: > 10.2 µM

Q: What about the IC50 [16] of the same compound?
A: > 10.2 µM

Q: What about the IC50 [17] of the same compound?
A: > 10.2 µM

Q: And the IC50 [18]?
A: > 10.2 µM

Q: And the IC50 [19]?
A: > 10.2 µM

Q: What about the IC50 [20] of the same compound?
A: > 10.2 µM

Q: And the IC50 [21]?
A: > 10.2 µM

Q: And the IC50 [22]?
A: > 10.2 µM

Q: What about the IC50 [23] of the same compound?
A: > 10.2 µM

Q: And the IC50 [24]?
A: > 10.2 µM

Q: And the IC50 [25]?
A: > 10.2 µM

Q: And the IC50 [26]?
A: > 10.2 µM

Q: What about the IC50 [27] of the same compound?
A: > 10.2 µM

Q: What about the IC50 [28] of the same compound?
A: > 10.2 µM

Q: What about the IC50 [29] of the same compound?
A: > 10.2 µM

Q: And the IC50 [30]?
A: 8.01 µM

Q: What about the IC50 [31] of the same compound?
A: > 10.2 µM

Q: And the IC50 [32]?
A: > 10.2 µM

Q: And the IC50 [33]?
A: > 10.2 µM

Q: What about the IC50 [34] of the same compound?
A: > 10.2 µM

Q: And the IC50 [35]?
A: > 10.2 µM

Q: And the IC50 [36]?
A: > 10.2 µM

Q: What about the IC50 [37] of the same compound?
A: > 10.2 µM

Q: What about the IC50 [38] of the same compound?
A: > 10.2 µM

Q: What about the IC50 [39] of the same compound?
A: 2.95 µM

Q: And the IC50 [40]?
A: > 10.2 µM

Q: And the IC50 [41]?
A: > 10.2 µM

Q: What about the IC50 [42] of the same compound?
A: > 10.2 µM

Q: And the IC50 [43]?
A: > 10.2 µM

Q: What about the IC50 [44] of the same compound?
A: > 10.2 µM

Q: What about the IC50 [45] of the same compound?
A: > 10.2 µM

Q: And the IC50 [46]?
A: > 10.2 µM

Q: And the IC50 [47]?
A: > 10.2 µM

Q: And the IC50 [48]?
A: > 10.2 µM

Q: And the IC50 [49]?
A: > 10.2 µM

Q: And the IC50 [50]?
A: > 10.2 µM
